Experimental data from EP2987533B1, “7-substituted piperazin-1-yl fluoroquinolone compounds, their use in the treatment of cancer, pharmaceutical compositions and a method for preparation” (priority 2014, dated 2016).

Tests used:
Type in all cases: cell-based
HS 578T = assay: NCI one-dose SRB growth assay; details: Homo sapiens; HS 578T (Breast Cancer), 10^-5 M, 48 h; read-out: % Growth Inhibition (GI %)
NCI-H23 = assay: NCI five-dose SRB growth assay; details: Homo sapiens; NCI-H23 (Non-Small Cell Lung Cancer), 48 h
COLO 205 = assay: NCI five-dose SRB growth assay; details: Homo sapiens; COLO 205 (Colon Cancer), 48 h
SF-268 = assay: NCI five-dose SRB growth assay; details: Homo sapiens; SF-268 (CNS Cancer), 48 h
MDA-MB-435 = assay: NCI five-dose SRB growth assay; details: Homo sapiens; MDA-MB-435 (Melanoma), 48 h
UACC-257 = assay: NCI five-dose SRB growth assay; details: Homo sapiens; UACC-257 (Melanoma), 48 h
OVCAR-5 = assay: NCI five-dose SRB growth assay; details: Homo sapiens; OVCAR-5 (Ovarian Cancer), 48 h

SMILES	inhibition at 10 µM (HS 578T) [%]	GI50 (NCI-H23) [µM]	GI50 (COLO 205) [µM]	GI50 (SF-268) [µM]	GI50 (MDA-MB-435) [µM]	GI50 (UACC-257) [µM]	GI50 (OVCAR-5) [µM]
CCn1cc(C(=O)O)c(=O)c2cc(F)c(N3CCN(S(=O)(=O)c4ccc(Cl)cc4)CC3)cc21 [Compound 1a]	81.1	2.67	2.62	3.85	2.47	2.16	4.25
CCn1cc(C(=O)O)c(=O)c2cc(F)c(N3CCN(S(=O)(=O)c4ccc(Cl)cc4Cl)CC3)cc21 [Compound 2a]	–	2.33	2.44	3.86	1.97	2.65	3.43
O=C(O)c1cn(C2CC2)c2cc(N3CCN(S(=O)(=O)c4ccc(Cl)c(Cl)c4)CC3)c(F)cc2c1=O [Compound 3b]	–	2.9	3.5	4.77	2.97	2.48	4.14
O=c1[nH]cc(F)c(=O)[nH]1 [Compound 5-FU, 5-fluorouracil, reference compound]	> 100	–	–	–	–	–	–
Cc1cc(C)c(S(=O)(=O)N2CCN(c3cc4c(cc3F)c(=O)c(C(=O)O)cn4C3CC3)CC2)c(C)c1 [Compound 6b]	–	3.41	3.4	3.96	–	> 100	–
CCn1cc(C(=O)O)c(=O)c2cc(F)c(N3CCN(S(=O)(=O)c4cccc5ccccc45)CC3)cc21 [Compound 7a]	–	3.13	2.02	4.39	3.13	2.72	3.38
